Series [1] is described as follows: Stability assessed as cyclization activation in phosphate buffer at pH 6.0 by HPLC. Format: physicochemical.
Series [2] in a line: Stability assessed as cyclization activation in phosphate buffer at pH 7.4 by HPLC. Type of series: physicochemical.
Series [3] is described as follows: Stability assessed as formation of ((2R,3S,5R)-5-(5-fluoro-2,4-dioxo-3,4-dihydropyrimidin-1(2H)-yl)-3-hydroxytetrahydrofuran-2-yl)methyl 3-(aminooxy)-2,2-dimethylpropanoate in phosphate buffer at pH 7.4 in presence of alpha-chymotrypsin. Type of series: ADME.
A short description of series [4]: Stability in phosphate buffer at pH 7.4 in absence of alpha-chymotrypsin. Type of series: ADME.

3 compounds from ChEMBL document CHEMBL1143278, “3-Aminoxypropionate-based linker system for cyclization activation in prodrug design” (Bioorg Med Chem Lett, 2009) can be followed below.

What is called half-life is the time in which the quantity being followed falls by half.

For the compound `CC(C)(CON)C(=O)OC[C@H]1O[C@@H](n2cc(F)c(=O)[nH]c2=O)C[C@@H]1O.Cl`, the half-life in series [1] was 23.4 h; in series [2], 0.722 h.

Consider `CC(C)(CONC(=O)[C@H](Cc1ccccc1)NC(=O)OCc1ccccc1)C(=O)OC[C@H]1O[C@@H](n2cc(F)c(=O)[nH]c2=O)C[C@@H]1O`, for which, in series [3], the t1/2 was determined as 0.608 h. The Stability result in series [4] is listed as “Stable”.

With `Cl.NOCCC(=O)OC[C@H]1O[C@@H](n2cc(F)c(=O)[nH]c2=O)C[C@@H]1O`, the half-life in series [1] is 22.9 h; in series [2] it was 1.14 h.
